Results: the NIST ThermoML archive (doi:10.1021/je0602521)
Numbers after ± are expanded uncertainties.

Legend:
[1] = refractive index (Na D-line) (dimensionless); settings: 298.15 K; 101.33 kPa; Liquid; Standard Abbe refractometry
[2] = 298.15 K; 101.33 kPa; Liquid

refractive index [1]	mass density [2]	SMILES
1.35941 ± 0.00068	–	CCO [ethanol]
–	786.46 ± 0.26 kg/m3	CO [methanol]
